Measurements as given in ChEMBL document CHEMBL4811234, “Dihydro-β-agarofuran-Type Sesquiterpenoids from the Seeds of Celastrus virens and Their Multidrug Resistance Reversal Activity against the KB/VCR Cell Line” (J Nat Prod, 2021).

How the values were obtained:
[1] = Cytotoxicity against human KB/VCR cells assessed as inhibition of cell proliferation at 2 uM measured after 72 hrs by CCK8 assay relative to control; format: cell-based
[2] = Cytotoxicity against human KB/VCR cells assessed as inhibition of cell proliferation at 20 uM measured after 72 hrs by CCK8 assay relative to control; format: cell-based

Work on `CC(=O)O[C@@H]1[C@@H]2[C@@H](OC(C)=O)[C@]3(OC2(C)C)[C@H](C)CC[C@H](OC(C)=O)[C@@]3(C)[C@@H]1OC(=O)c1ccccc1` yielded an inhibition at 72 h, 2 µM [1] of 1.6% and an inhibition at 72 h, 20 µM [2] of 2.4%.

In the case of `CC(=O)O[C@@H]1[C@@H]2[C@@H](OC(C)=O)[C@]3(OC2(C)C)[C@H](C)C[C@H](OC(=O)/C=C/c2ccccc2)[C@H](OC(C)=O)[C@@]3(C)[C@@H]1OC(=O)c1ccccc1`, the inhibition at 72 h, 2 µM [1] is reported as 0.7% and the inhibition at 72 h, 20 µM [2] is reported as -12.8%.

`CC(=O)O[C@H]1[C@@H]2[C@@H](OC(C)=O)[C@]3(OC2(C)C)[C@H](C)C[C@@H](OC(C)=O)[C@H](OC(C)=O)[C@@]3(C)[C@H]1OC(=O)c1ccccc1` showed an inhibition at 72 h, 2 µM [1] of -1.2% and an inhibition at 72 h, 20 µM [2] of -2%.

`CC(=O)O[C@@H]1[C@@H]2[C@@H](OC(C)=O)[C@]3(OC2(C)C)[C@H](C)C[C@@H](OC(C)=O)[C@H](OC(C)=O)[C@@]3(C)[C@@H]1OC(=O)c1ccccc1` gave an inhibition at 72 h, 2 µM [1] of 2.7% and an inhibition at 72 h, 20 µM [2] of -1.5%.

For `COc1cc2c(cc1OC)CN(CCc1ccc(-n3nnc(-c4cc(OC)c(OC)cc4NC(=O)c4cc(=O)c5ccccc5o4)n3)cc1)CC2`, the inhibition at 72 h, 2 µM [1] was 23.1%.

`CC(=O)O[C@H]1CC[C@@H](C)[C@]23OC(C)(C)[C@H](C[C@H](OC(=O)c4ccccc4)[C@]12C)[C@H]3OC(C)=O` showed an inhibition at 72 h, 2 µM [1] of -1.1% and an inhibition at 72 h, 20 µM [2] of 0.7%.

Molecule `CC(=O)OC[C@]12[C@H](OC(C)=O)C(=O)[C@@H]3[C@@H](OC(C)=O)[C@]1(OC3(C)C)[C@H](C)[C@@H](O)[C@H](OC(C)=O)[C@@H]2OC(C)=O` has an inhibition at 72 h, 2 µM [1] of -5.3% and an inhibition at 72 h, 20 µM [2] of 9.2%.

Molecule `CC(=O)OC[C@]12[C@H](OC(C)=O)C(=O)[C@@H]3[C@@H](OC(C)=O)[C@]1(OC3(C)C)[C@H](C)C[C@H](O)[C@@H]2OC(C)=O` has an inhibition at 72 h, 2 µM [1] of -2% and an inhibition at 72 h, 20 µM [2] of 2.6%.

`CC(=O)O[C@H]1[C@@H]2[C@@H](OC(=O)/C=C/c3ccccc3)[C@]3(OC2(C)C)[C@H](C)C[C@H](O)[C@H](OC(C)=O)[C@@]3(C)[C@H]1OC(=O)c1ccccc1` gave an inhibition at 72 h, 2 µM [1] of -20.3% and an inhibition at 72 h, 20 µM [2] of 76.9%.

With `CC(=O)OC[C@]12[C@H](OC(C)=O)C(=O)[C@@H]3[C@@H](O)[C@]1(OC3(C)C)[C@H](C)[C@@H](O)[C@H](OC(C)=O)[C@@H]2OC(C)=O` the inhibition at 72 h, 2 µM [1] was -0.5% and the inhibition at 72 h, 20 µM [2] was 1.5%.

`CC(=O)O[C@H]1C[C@@H](C)[C@]23OC(C)(C)[C@H](C[C@H](OC(=O)c4ccccc4)[C@@]2(C)[C@@H]1OC(C)=O)[C@H]3OC(=O)c1ccccc1` showed an inhibition at 72 h, 2 µM [1] of 0% and an inhibition at 72 h, 20 µM [2] of 57.9%.

`CC(=O)O[C@@H]1C[C@@H](C)[C@]23OC(C)(C)[C@H]([C@@H](O)[C@H](OC(=O)c4ccccc4)[C@@]2(C)[C@H]1OC(C)=O)[C@H]3OC(=O)/C=C/c1ccccc1` showed an inhibition at 72 h, 2 µM [1] of 3.3% and an inhibition at 72 h, 20 µM [2] of 78.7%.

With `CC(=O)O[C@H]1[C@@H]2[C@@H](OC(=O)c3cccnc3)[C@]3(OC2(C)C)[C@H](C)C[C@H](OC(C)=O)[C@@H](OC(C)=O)[C@@]3(C)[C@H]1OC(=O)c1ccccc1` the inhibition at 72 h, 2 µM [1] was -3% and the inhibition at 72 h, 20 µM [2] was -6.7%.

For `CC(=O)OC[C@]12[C@H](OC(C)=O)C(=O)[C@@H]3[C@@H](O)[C@]1(OC3(C)C)[C@H](C)[C@@H](OC(C)=O)[C@H](OC(C)=O)[C@@H]2OC(C)=O`, the inhibition at 72 h, 2 µM [1] was 1.6% and the inhibition at 72 h, 20 µM [2] was 2.6%.

`CC(=O)O[C@@H]1[C@H]2[C@H](O)[C@H](OC(=O)c3ccccc3)[C@]3(C)[C@@H](OC(C)=O)[C@H](O)C[C@@H](C)[C@@]13OC2(C)C` gave an inhibition at 72 h, 2 µM [1] of -1.9% and an inhibition at 72 h, 20 µM [2] of -2.1%.

`CC(=O)O[C@@H]1C[C@@H](C)[C@]23OC(C)(C)[C@H](C[C@H](OC(=O)c4ccccc4)[C@]2(C)[C@H]1OC(C)=O)[C@H]3OC(=O)/C=C/c1ccccc1` gave an inhibition at 72 h, 2 µM [1] of -5.3% and an inhibition at 72 h, 20 µM [2] of 81.8%.

In the case of `CCCCCC(=O)O[C@@H]1[C@@H]2[C@@H](OC(C)=O)[C@]3(OC2(C)C)[C@H](C)C[C@@H](OC(C)=O)[C@H](OC(C)=O)[C@@]3(C)[C@H]1OC(=O)c1ccccc1`, the inhibition at 72 h, 2 µM [1] is reported as -3.1% and the inhibition at 72 h, 20 µM [2] is reported as -1.9%.

`CC(=O)O[C@H]1[C@@H]2[C@@H](OC(=O)/C=C/c3ccccc3)[C@]3(OC2(C)C)[C@H](C)C[C@@H](OC(C)=O)[C@H](OC(C)=O)[C@@]3(C)[C@H]1OC(=O)c1ccccc1` showed an inhibition at 72 h, 2 µM [1] of -0.6% and an inhibition at 72 h, 20 µM [2] of -3%.

Work on `CC(=O)O[C@H]1CC[C@@H](C)[C@]23OC(C)(C)[C@H](C[C@H](OC(=O)c4ccccc4)[C@]12C)[C@H]3OC(=O)c1ccccc1` yielded an inhibition at 72 h, 2 µM [1] of -1.8% and an inhibition at 72 h, 20 µM [2] of 77.9%.

Work on `CC(=O)O[C@@H]1[C@@H]2[C@@H](OC(C)=O)[C@]3(OC2(C)C)[C@H](C)CC[C@H](OC(C)=O)[C@@]3(C)[C@H]1OC(=O)c1ccccc1` yielded an inhibition at 72 h, 2 µM [1] of 2.4% and an inhibition at 72 h, 20 µM [2] of 3.2%.
